Data from ChEMBL document CHEMBL3596169, “Pyridine hydroxamic acids are specific anti-HCV agents affecting HDAC6” (Bioorg Med Chem Lett, 2015).
pEC50: −log10 of the molar value. The source made the active and inactive calls. The rule behind the calls is not given here.

Experiments:
Hepatitis C virus = test: Antiviral activity against HCV infected in human Huh-luc/neo7 cells after 72 hrs by luciferase assay; format: functional, organism-based, Hepacivirus hominis
[1] = Selectivity index, ratio of CC50 for human HuH7 cells transfected with luc/neo plasmid to EC50 for HCV infected in human Huh-luc/neo7 cells; set-up: species or system Huh-7
[2] = Cytotoxicity against human HuH7 cells transfected with luc/neo plasmid assessed as cell viability after 72 hrs by MTT method; format: cell-based, Huh-7
[3] = molecular target: T1, Protein deacetylase HDAC6 (Homo sapiens) (UniProt Q9UBN7); test: Inhibition of HDAC6 in human Huh-luc/neo7 cells assessed as alpha-tubulin acetylation at 3 to 24 uM by Western blotting analysis; format: cell-based
T1 sequence (whole entry): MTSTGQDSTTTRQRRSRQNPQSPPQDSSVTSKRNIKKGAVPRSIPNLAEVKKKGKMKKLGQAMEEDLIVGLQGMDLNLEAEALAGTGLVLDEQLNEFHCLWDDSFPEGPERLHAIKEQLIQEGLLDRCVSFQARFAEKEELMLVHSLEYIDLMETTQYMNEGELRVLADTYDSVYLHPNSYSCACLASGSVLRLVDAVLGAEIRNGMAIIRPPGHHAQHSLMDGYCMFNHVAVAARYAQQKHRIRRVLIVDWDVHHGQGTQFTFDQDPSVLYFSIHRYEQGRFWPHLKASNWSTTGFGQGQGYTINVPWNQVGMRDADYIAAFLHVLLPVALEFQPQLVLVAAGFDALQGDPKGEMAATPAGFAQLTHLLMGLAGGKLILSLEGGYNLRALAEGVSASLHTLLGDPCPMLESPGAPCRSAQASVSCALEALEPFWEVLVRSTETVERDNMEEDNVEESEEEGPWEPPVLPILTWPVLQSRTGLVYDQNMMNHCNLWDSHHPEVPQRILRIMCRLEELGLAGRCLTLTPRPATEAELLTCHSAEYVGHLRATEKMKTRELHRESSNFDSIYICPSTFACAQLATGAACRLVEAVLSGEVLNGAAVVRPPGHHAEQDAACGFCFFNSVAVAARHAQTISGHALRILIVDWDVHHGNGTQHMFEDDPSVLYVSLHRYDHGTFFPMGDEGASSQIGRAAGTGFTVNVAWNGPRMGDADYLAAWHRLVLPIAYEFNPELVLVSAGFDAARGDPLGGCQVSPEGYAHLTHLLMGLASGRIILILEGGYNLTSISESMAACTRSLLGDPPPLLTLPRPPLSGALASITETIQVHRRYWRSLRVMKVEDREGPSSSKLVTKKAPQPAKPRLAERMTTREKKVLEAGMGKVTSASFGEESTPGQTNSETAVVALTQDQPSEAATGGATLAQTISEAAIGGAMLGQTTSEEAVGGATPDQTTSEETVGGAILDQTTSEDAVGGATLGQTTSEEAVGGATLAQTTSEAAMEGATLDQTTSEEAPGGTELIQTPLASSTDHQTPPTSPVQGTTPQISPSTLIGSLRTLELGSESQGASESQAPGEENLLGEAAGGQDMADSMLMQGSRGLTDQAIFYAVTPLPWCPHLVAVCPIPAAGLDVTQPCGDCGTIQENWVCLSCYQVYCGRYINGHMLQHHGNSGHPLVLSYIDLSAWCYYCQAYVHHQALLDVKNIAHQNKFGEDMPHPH

[4] = molecular target: T1, Protein deacetylase HDAC6 (Homo sapiens); test: Inhibition of HDAC6 in human Huh-luc/neo7 cells assessed as alpha-tubulin acetylation at 20 to 100 uM by Western blotting analysis; format: cell-based
[5] = molecular target: T1, Protein deacetylase HDAC6 (Homo sapiens); test: Inhibition of HDAC6 in human Huh-luc/neo7 cells assessed as alpha-tubulin acetylation at 5 to 60 uM by Western blotting analysis; format: cell-based

| pEC50 (Hepatitis C virus) | inhibition [3] | HDAC6 inhibition (active/not active) [4] | inhibition [5] | SMILES | Ratio CC50/EC50 [1] | CC50 at 72 h [2] [µM] |
| --- | --- | --- | --- | --- | --- | --- |
| 3.62 |  |  |  | CN(O)C(=O)c1ccccn1 | >4 | > 1000 |
|  | Active |  |  | O=C(NO)c1ccc(Cl)cc1 |  |  |
| 4.77 |  | Active |  | O=C(NO)c1ccncc1 | 12 | 210 |
| 4.92 |  |  |  | Cn1cccc(C(=O)NO)c1=O | >83 | > 1000 |
| 5.10 |  |  |  | O=C(NO)c1ncccc1Cl | 100 | 800 |
|  |  | Active |  | O=C(NO)c1ccccc1 |  |  |
| < 3.00 |  |  |  | CONC(=O)c1ccccn1 |  | > 1000 |
| < 3.00 |  |  |  | CN(O)C(=O)c1cccc[n+]1[O-] |  | > 1000 |
| 5.30 |  |  |  | COc1cccnc1C(=O)NO | 180 | 880 |
| 4.77 |  | inactive |  | O=C(NO)c1cc[n+]([O-])cc1 | >59 | > 1000 |
| 4.70 |  | Active |  | O=C(NO)c1ccc[n+]([O-])c1 | >50 | > 1000 |
|  |  |  | Active | Cc1ccc(C(=O)NO)cc1 |  |  |
| 4.60 |  | Active |  | O=C(NO)c1cccnc1 [NICOXAMAT] | 18 | 450 |

| SMILES | pEC50 (Hepatitis C virus) | inhibition [3] | HDAC6 inhibition (active/not active) [4] | inhibition [5] | Ratio CC50/EC50 [1] | CC50 at 72 h [2] [µM] |
| --- | --- | --- | --- | --- | --- | --- |
| O=C(NO)c1cccc[n+]1[O-] | 5.22 |  | inactive |  | 150 | 900 |
| O=C(NO)c1ccccn1 | 4.52 |  | inactive |  | 24 | 710 |
